In patent publication US11253567B2, “Citrus seed extract-containing composition, food, drug, and method for producing citrus seed extract-containing composition” (Kikkoman Corporation, priority 2014, dated 2022):

Columns and labels:
KKAy mice [1] = experiment: Rearing experiment of KKAy mice: blood-glucose level; format: in vivo; settings: Experiment 5, FIG. 11; 0.035 mass % in AIN-93G feed; pair feeding; day 28
Experimental: (§1) KKAy mice at 3 weeks of age were purchased from CLEA Japan, Inc. as diabetes onset mode mice, and experimentally reared after preliminary rearing for 7 days. Herein, the conditions of rearing the mice were as follows. […]
(§2) AIN-93G was used for base experimental feed. […]
(§3) Note, the Yuzu seed extract used in Experiment 1 was prepared by heat-drying the Yuzu seeds at 100° C. for 720 min, subsequently grinding the dried Yuzu seeds so that the particle size (i.e., diameter) became about 1 mm or less, and performing extraction at an ambient temperature for 10 min using 10-fold volume of 100% ethanol to the ground Yuzu seeds.
In each of a control group (i.e., administered with AIN-93G alone including no other materials), a Yuzu seed extract (1% mass %) added group, a pioglitazone (0.03 mass %) added group, 10 mice were preliminarily reared for 7 days, and subsequently reared with the experimental feed totally for 28 days.
After initiating the rearing experiment, blood was collected through a tail vain at the time from 9 am to 11 am at a day after the predetermined days passed. Then, the collected blood was analyzed by blood-glucose analyzers (HORIBA, Ltd. Antsence III and Bayer DCA2000) to measure a blood-glucose level and an HbA1c level. The measured blood-glucose and HbA1c levels were processed to calculate the mean value of each group. […]

KKAy mice [2] = experiment: Rearing experiment of KKAy mice: HbA1c level; format: in vivo; settings: Experiment 5, FIG. 12; 0.035 mass % in AIN-93G feed; pair feeding
Experimental: as §1, §2
as §3, with “seeds. […]” for “seeds.”
After initiating the rearing experiment, blood was collected through a tail vain at the time from 9 am to 11 am at a day after the predetermined days passed. Then, the collected blood was analyzed by blood-glucose analyzers (HORIBA, Ltd. Antsence III and Bayer DCA2000) to measure a blood-glucose level and an HbA1c level. The measured blood-glucose and HbA1c levels were processed to calculate the mean value of each group.
Note, all the HbA1c levels thus measured and calculated in the experiment are represented by the JDS values. […]

With CC1(C)OC(=O)C=C[C@]2(C)[C@H]3CC[C@@]4(C)[C@H](c5ccoc5)OC(=O)[C@H]5O[C@]54[C@]3(C)C(=O)C[C@@H]12 [obacunone, Obacunone] the “blood-glucose level lower than that of the control group (difference)” value (KKAy mice [1]) was “about 50 mg/dl” and the “HbA1c levels compared to control group” value (KKAy mice [2]) was “lower than those of the control group”.
